Measured values from ChEMBL document CHEMBL4043286, “Exploiting the S4-S5 Specificity of Human Neutrophil Proteinase 3 to Improve the Potency of Peptidyl Di(chlorophenyl)-phosphonate Ester Inhibitors: A Kinetic and Molecular Modeling Analysis” (J Med Chem, 2018).
The source made the active and inactive calls. No cut-off for these calls is given here.

Target: T1, Neutrophil elastase (Homo sapiens) (UniProt P08246)
T1 sequence (whole entry): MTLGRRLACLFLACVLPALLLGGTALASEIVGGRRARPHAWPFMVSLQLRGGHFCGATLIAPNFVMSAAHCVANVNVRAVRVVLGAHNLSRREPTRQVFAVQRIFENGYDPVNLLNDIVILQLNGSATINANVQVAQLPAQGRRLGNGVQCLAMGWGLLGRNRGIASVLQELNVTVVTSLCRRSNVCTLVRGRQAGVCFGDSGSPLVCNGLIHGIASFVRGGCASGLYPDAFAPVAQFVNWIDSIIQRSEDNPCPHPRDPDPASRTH
Assay: Inhibition of NE in cystic fibrosis patient sputum supernatant at 5 to 10 nM using ABZ-APEEIMRRQ-EDDnp as substrate after 20 mins by spectrophotometric method

CCCC(NC(=O)[C@H](CC(=O)O)NC(=O)[C@H](Cc1ccc(O)cc1)NC(=O)[C@@H](NC(=O)CCCC[C@@H]1SC[C@@H]2NC(=O)N[C@@H]21)C(C)C)P(=O)(Oc1ccc(Cl)cc1)Oc1ccc(Cl)cc1 (stereo partly specified)
inhibition: inactive
